Measured values from patent US5496564A, “Suspendible composition and process for preparing the same” (Fujisawa Pharmaceutical Co., Ltd., priority 1990, dated 1996).

Assay: Absorption test by oral administration: concentration in whole blood
Type: in vivo
Settings: cynomolgus monkey, cynomolgus monkeys (six), oral 0.32 mg/kg, aqueous suspension of Prescription 7 diluted to 0.064 mg/ml, average ± standard error, read-out: Conc. in whole blood
Experimental: The aqueous suspension obtained in Prescription 7 was used.
The oral agent mentioned above was diluted with purified water to have the concentration of FK 506 substance of 0.064 mg/ml. The resultant was orally administered to six cynomolgus monkeys (0.32 mg/kg).
The concentration of FK 506 substance in whole blood was measured 0.5, 1, 2, 4 and 6 hours after the administration in accordance with the aforesaid enzyme immunoassay.
The test results are represented by the average ± standard error.

concentration at 0.5 h (0.5 hours): 13.4 ± 9.88 ng/mL
concentration at 1 h (1 hour): 18.6 ± 9.36 ng/mL
concentration at 2 h (2 hours): 18.6 ± 9.89 ng/mL
concentration at 4 h (4 hours): 15.3 ± 7.77 ng/mL
concentration at 6 h (6 hours): 12.4 ± 9.33 ng/mL
SMILES: C=CCC1C=C(C)CC(C)CC(OC)C2OC(O)(C(=O)C(=O)N3CCCCC3C(=O)OC(C(C)=CC3CCC(O)C(OC)C3)C(C)C(O)CC1=O)C(C)CC2OC (centres unmarked) [FK 506 substance, 17-allyl-1,14-dihydroxy-12-[2-(4-hydroxy-3-methoxycyclohexyl)-1-methylvinyl]-23,25-dimethoxy-13,19,21,27-tetramethyl-11,28-dioxa-4-azatricyclo-[22.3.1.0^4,9]octacos-18-ene-2,3,10,16-tetraone]
